The text below walks through data of article PMC12723384, “A S180F substitution in D-alanine aminotransferase confers resistance to β-chloro-D-alanine in Staphylococcus aureus” (The Journal of Biological Chemistry, 2025).

Holding throughout (type): biochemical
For assay [1], the target named is T1, D-alanine aminotransferase (Dat-S180F) (Staphylococcus aureus, UniProt A0A0H2XHU6, S180F).
T1 construct: recombinant HIS-tagged Dat-S180F from BCDA1, expressed from pET28b in E. coli
T1 sequence (A0A0H2XHU6 1-282 S180F): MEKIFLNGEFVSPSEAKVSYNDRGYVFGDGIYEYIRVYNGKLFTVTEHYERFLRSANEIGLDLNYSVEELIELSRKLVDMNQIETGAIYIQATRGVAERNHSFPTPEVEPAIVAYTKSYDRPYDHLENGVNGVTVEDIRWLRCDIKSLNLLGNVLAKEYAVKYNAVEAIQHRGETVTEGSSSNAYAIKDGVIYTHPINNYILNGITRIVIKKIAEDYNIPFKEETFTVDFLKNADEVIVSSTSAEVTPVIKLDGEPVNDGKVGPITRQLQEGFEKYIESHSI
Briefly: lactate dehydrogenase-coupled assay of pyruvate production from D-alanine, A340.

Assay [2] has as its target T2, D-alanine aminotransferase (Dat) (Staphylococcus aureus, UniProt A0A0H2XHU6).
T2 construct: recombinant HIS-tagged wild-type Dat from JE2, expressed from pET28b in E. coli
T2 sequence (A0A0H2XHU6 1-282): T1 sequence (A0A0H2XHU6 1-282 S180F)
The description is as above.

Assay [3] concerns the target T3, D-alanine aminotransferase (Dat) (Staphylococcus aureus, UniProt Q5HF24).
T3 construct: recombinant HIS-tagged wild-type Dat
The experiment in a line: lactate dehydrogenase-coupled assay, turnover of […] D-alanine to pyruvate.

Usually IC50 stands for the concentration needed to halve the response being measured. Lower therefore signals higher potency. Consider `N[C@H](CCl)C(=O)O` [BCDA, β-chloro-D-alanine], for which the IC50 in assay [1] was determined as 34 ± 4.7 µM; in assay [2], 96.8 ± 12 µM.

Regarding `C[C@@H](N)C(=O)O` [D-alanine], the “lactate dehydrogenase-coupled assay, turnover of 25 mM D-alanine to pyruvate” value in assay [3] is “comparison of wild-type Dat (green) and Dat-S180F (violet) enzymatic production of pyruvate from D-alanine”.
